Read-outs that look alike come from different tables or passages of the source.
Target: T1, GPR39 receptors on m39-20 cell lines (Mus musculus, UniProt Q5U431, T447P)
T1 construct: P2A-mCherry (C); expressed in transfected cells
T1 sequence (Q5U431 1-456 T447P): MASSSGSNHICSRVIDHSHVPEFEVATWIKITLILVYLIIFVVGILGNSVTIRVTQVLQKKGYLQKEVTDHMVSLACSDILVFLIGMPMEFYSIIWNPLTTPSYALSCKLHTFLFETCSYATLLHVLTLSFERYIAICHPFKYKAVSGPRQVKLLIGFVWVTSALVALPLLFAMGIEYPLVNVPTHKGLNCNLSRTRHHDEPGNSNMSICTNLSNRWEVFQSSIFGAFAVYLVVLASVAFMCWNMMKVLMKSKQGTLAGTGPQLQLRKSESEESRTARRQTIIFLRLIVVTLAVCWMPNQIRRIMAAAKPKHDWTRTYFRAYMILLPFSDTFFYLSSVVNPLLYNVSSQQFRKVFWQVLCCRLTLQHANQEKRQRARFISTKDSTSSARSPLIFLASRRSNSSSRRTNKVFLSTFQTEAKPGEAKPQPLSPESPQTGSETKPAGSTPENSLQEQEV
Test: FLIPR calcium imaging on m39-20 cell lines stably expressing murine-derived GPR39
Format: cell-based
Details: for intracellular calcium signals in m39-20 cell lines: FIG. 1; for Bile acid + 4 μM zinc ions Efficacy / Only bile acid Efficacy: activation efficacy; for change of activation efficacy after the addition of zinc ions: Table 1, FIG. 2
Source text: Intracellular calcium imaging is a routine technique to study cell functions, the basic principle of which is to detect the concentration of the calcium ion in tissues or cells using a calcium indicator, thereby reflecting certain reactions in the tissues or cells. In the present application, the intracellular calcium released from a cell line that stably or transiently expresses GPR39 is detected using Fluo8-AM, a calcium fluorescent indicator, so as to determine the activation of the GPR39 receptor by the bile acid and derivative thereof.
HEK293T cells (purchased from ATCC) were seeded in a 6-well plate (coming Co.) at an appropriate density (about 0.5-2×10^5/well). When the cell density reached above 30%, the plasmid PLVXK-mGPR39-P2A-mCherry was transfected with Lipofectamine 3000 (Invitrogen) at a concentration of 2 μg per well. The cells were passaged 24 hours after transfection, the puromycin (gibco) was added into the medium at a concentration of 2 μg/mL for antibiotic screening of cells. After 2-4 days of continuous screening, the cells screened for puromycin resistance were trypsinized and screened by flow cytometry for monoclones with red fluorescence. And these monoclones were seeded in a 96-well plate and cultured in a medium without puromycin for around 10 days. Cell colonies with red fluorescence were sorted under a fluorescence microscope, trypsinized and then passaged and expanded in a 6-well plate. Cell lines m39-20 stably expressing murine-derived GPR39 were obtained through the above methods.
Calcium dye Fluo8-AM (ATT bioquest Co.) was dissolved in DMSO solvent to formulate a stock solution of 1 μg/μL. […] After then, the calcium dye working solution was replaced with the 4K solution (50 μL per well), and acclimated for 5 min at room temperature for the subsequent calcium imaging experiment.
Bile acids and derivatives thereof as listed in Table 1 below were dissolved in dimethyl sulfoxide (DMSO, Sigma Co.) solvent to formulate a stock solution of 50 mM, which was stored at −20° C. During calcium imaging with FLIPR, the drug was diluted with the above 4K solution into a working concentration of 400 μM, and packaged into another 96-well plate. […] The instrument parameters were set so that 50 μL of the drug solution may be added into the culture wells within 2 s. The fluorescence recording result within the first 30 seconds was used as the baseline value. The FLIPR robot arm was programmed to automatically add bile acids and derivatives thereof into the cell sample culture wells at the 31st second. 1% of DMSO solvent was used as the blank control.
After that, the calcium dye working solution was replaced with a 4K solution containing 4 μM zinc ions (50 μL per well), followed by acclimation for 5 min at room temperature.

[1] = m39-20 cells, no zinc ions, read-out: EC50 Only agonist
[2] = Bile acid + 4 μM zinc ions EC50, m39-20 cells, 4 μM zinc ions
[3] = m39-20 cells, no zinc ions, read-out: Only bile acid EC50
[4] = Only bile acid EC50, m39-20 cells, no zinc ions

SMILES | EC50 (EC50 Agonist + 4 μM zinc ions, m39-20 cells, 4 μM zinc ions) [µM] | EC50 [1] [µM] | EC50 [2] [µM] | intracellular calcium signals in m39-20 cell lines | Bile acid + 4 μM zinc ions Efficacy (m39-20 cells, 4 μM zinc ions) [%] | Only bile acid Efficacy (m39-20 cells, no zinc ions) [%] | change of activation efficacy after the addition of zinc ions (m39-20 cells) | EC50 [3] [µM] | EC50 [4] [µM] | EC50 (read-out: EC50 Agonist + 4 μM zinc ions, m39-20 cells, 4 μM zinc ions) [µM]
CNc1nc(NCc2ccc(NS(C)(=O)=O)cc2Cl)cc(-c2ccccn2)n1 [TG-G 1008, reference compound] | 1.5 | 39 | – | – | – | – | – | – | – | –
C[C@H](CCC(=O)NCC(=O)O)[C@H]1CC[C@H]2[C@@H]3[C@H](O)C[C@@H]4C[C@H](O)CC[C@]4(C)[C@H]3CC[C@]12C [GCDCA] | – | – | 80.6 ± 3.6 | varying extents of intracellular calcium signals | 91.2 ± 4.4 | 16.5 ± 2.4 | obviously improved | > 200 | – | –
C[C@H](CCC(=O)NCC(=O)O)[C@H]1CC[C@H]2[C@@H]3[C@H](O)C[C@@H]4C[C@H](OS(=O)(=O)O)CC[C@]4(C)[C@H]3CC[C@]12C [GCDCAS] | – | – | > 100 | varying extents of intracellular calcium signals | 58.6 ± 2 | 0 | obviously improved | > 200 | – | –
C[C@H](CCC(=O)O)[C@H]1CC[C@H]2[C@@H]3CC[C@@H]4C[C@H](OS(=O)(=O)O)CC[C@]4(C)[C@H]3C[C@H](O)[C@]12C [DCAS] | – | – | 37.8 ± 1 | varying extents of intracellular calcium signals | 81.9 ± 2.2 | 0 | obviously improved | > 200 | – | –
C[C@H](CCC(=O)O)[C@H]1CC[C@H]2[C@@H]3[C@@H](O)C[C@@H]4C[C@H](OS(=O)(=O)O)CC[C@]4(C)[C@H]3CC[C@]12C [UDCAS] | – | – | 68.6 ± 16.3 | varying extents of intracellular calcium signals | 84.7 ± 2.4 | 0 | obviously improved | > 200 | – | –
C[C@H](CCC(=O)O)[C@H]1CC[C@H]2[C@@H]3[C@H](O)C[C@@H]4C[C@H](O)CC[C@]4(C)[C@H]3C[C@H](O)[C@]12C [CA, Cholic acid] | – | – | 49.2 ± 3.3 | – | 99.3 ± 2.1 | 0 | – | > 200 | – | –
C[C@H](CCC(=O)NCC(=O)O)[C@H]1CC[C@H]2[C@@H]3CC[C@@H]4C[C@H](O)CC[C@]4(C)[C@H]3CC[C@]12C [GLCA] | – | – | 13.5 ± 3.4 | varying extents of intracellular calcium signals | 74 ± 4.1 | 0 | obviously improved | – | > 200 | –
C[C@H](CCC(=O)NCCS(=O)(=O)O)[C@H]1CC[C@H]2[C@@H]3CC[C@@H]4C[C@H](OS(=O)(=O)O)CC[C@]4(C)[C@H]3C[C@H](O)[C@]12C [TDCAS] | – | – | > 100 | varying extents of intracellular calcium signals | 60.1 ± 5.5 | 0 | obviously improved | > 200 | – | –
C[C@H](CCC(=O)O)[C@H]1CC[C@H]2[C@@H]3[C@@H](O)C[C@@H]4C[C@H](O)CC[C@]4(C)[C@H]3CC[C@]12C [UDCA, Ursodeoxycholic acid] | – | – | > 100 | – | 58.5 ± 4 | 0 | – | > 200 | – | –
C[C@H](CCC(=O)NCCS(=O)(=O)O)[C@H]1CC[C@H]2[C@@H]3CC[C@@H]4C[C@H](O)CC[C@]4(C)[C@H]3CC[C@]12C [TLCA] | – | – | 8.1 ± 2.4 | varying extents of intracellular calcium signals | 103.5 ± 1.1 | 47.8 ± 1.1 | – | 44 ± 10 | – | –
C[C@H](CCC(=O)NCC(=O)O)[C@H]1CC[C@H]2[C@@H]3CC[C@@H]4C[C@H](O)CC[C@]4(C)[C@H]3C[C@H](O)[C@]12C [GDCA] | – | – | 46 ± 10.3 | varying extents of intracellular calcium signals | 86.4 ± 6.3 | 7.7 ± 1.7 | obviously improved | > 200 | – | –
C[C@H](CCC(=O)NCCS(=O)(=O)O)[C@H]1CC[C@H]2[C@@H]3CC[C@@H]4C[C@H](O)CC[C@]4(C)[C@H]3C[C@H](O)[C@]12C [TDCA] | – | – | 27.6 ± 7.1 | varying extents of intracellular calcium signals | 99.3 ± 1.7 | 22.8 ± 3 | obviously improved | > 200 | – | –
C[C@H](CCC(=O)NCC(=O)O)[C@H]1CC[C@H]2[C@@H]3[C@@H](O)C[C@@H]4C[C@H](O)CC[C@]4(C)[C@H]3CC[C@]12C [GUDCA] | – | – | > 100 | varying extents of intracellular calcium signals | 35.3 ± 6.8 | 0 | obviously improved | > 200 | – | –
CCCCCCCCC=CCCCCCCCC(=O)OCC(CO)OC(=O)CCCCCCCC=CCCCCCCCC (stereo not drawn) [TM-N 1324, reference compound] | – | 42.9 | – | – | – | – | – | – | – | 3.5
C[C@H](CCC(=O)NCCS(=O)(=O)O)[C@H]1CC[C@H]2[C@@H]3[C@H](O)C[C@@H]4C[C@H](O)CC[C@]4(C)[C@H]3C[C@H](O)[C@]12C [TCA] | – | – | > 100 | varying extents of intracellular calcium signals | 31.8 ± 3 | 0 | obviously improved | – | > 200 | –
C[C@H](CCC(=O)O)[C@H]1CC[C@H]2[C@@H]3CC[C@@H]4C[C@H](O)CC[C@]4(C)[C@H]3CC[C@]12C [LCA, Lithocholic acid] | – | – | > 100 | – | 1.3 ± 1.1 | 0 | – | > 200 | – | –
C[C@H](CCC(=O)NCC(=O)O)[C@H]1CC[C@H]2[C@@H]3[C@H](O)C[C@@H]4C[C@H](O)CC[C@]4(C)[C@H]3C[C@H](O)[C@]12C [GCA] | – | – | > 100 | varying extents of intracellular calcium signals | 20 ± 2.7 | 0 | obviously improved | > 200 | – | –
C[C@H](CCC(=O)NCC(=O)O)[C@H]1CC[C@H]2[C@@H]3CC[C@@H]4C[C@H](OS(=O)(=O)O)CC[C@]4(C)[C@H]3C[C@H](O)[C@]12C [GDCAS] | – | – | > 100 | varying extents of intracellular calcium signals | 58.5 ± 4.8 | 0 | obviously improved | > 200 | – | –
C[C@H](CCC(=O)NCCS(=O)(=O)O)[C@H]1CC[C@H]2[C@@H]3[C@@H](O)C[C@@H]4C[C@H](OS(=O)(=O)O)CC[C@]4(C)[C@H]3CC[C@]12C [TUDCAS] | – | – | > 100 | varying extents of intracellular calcium signals | 31.4 ± 3.2 | 0 | obviously improved | > 200 | – | –

Reference: patent publication US12569502B2, “Use of bile acids and derivatives thereof in preparation of GPR39 agonist” (PEKING UNIVERSITY, priority 2019, dated 2026)
